Assay results as given in ChEMBL document CHEMBL1140598, “A review of anti-infective and anti-inflammatory chalcones” (Eur J Med Chem, 2007).

Test: Inhibition of LPS-stimulated nitric oxide formation in mouse microglial cells
Assay type: functional, cell-based

IC50: 0.7 µM
Structure (SMILES): CCCCOc1ccc(OCCCC)c(C(=O)/C=C/c2ccc(Cl)cc2)c1
